Key:
SARS-CoV-2 [1] = test: Antiviral activity against SARS-CoV-2 infected in Vero E6 cells preincubated with cells for 1 day followed by viral infection and measured after 3 days by qRT-PCR analysis; format: functional, organism-based; settings: Severe acute respiratory syndrome coronavirus 2, Vero C1008
[2] = Mutagenicity in Escherichia coli WP2uvrA assessed as inhibition of bacterial growth at 0.152 to 333 ug incubated in presence of S9 fraction by micro-Ames test; format: toxicity, subcellular; settings: dose 0.152-333 µg
MOLT-4 = test: Cytotoxicity against human MOLT-4 cells assessed as reduction in cell viability at 10 uM incubated for 12 days by CCK-8 assay; format: toxicity, cell-based; settings: molt-4, 288 h, time 12 day
SARS-CoV-2 [3] = test: Antiviral activity against SARS-CoV-2 infected in Vero E6 cells preincubated with cells for 1 day in absence of HCl followed by viral infection and measured after 3 days by qRT-PCR analysis; format: functional, organism-based; settings: Severe acute respiratory syndrome coronavirus 2, Vero C1008
PBMC = test: Cytotoxicity against human PBMC cells assessed as reduction in cell viability at 10 uM incubated for 12 days by CCK-8 assay; format: toxicity, cell-based; settings: 288 h, time 12 day
[4] = Mutagenicity in Salmonella typhimurium TA100 assessed as inhibition of bacterial growth at 0.152 to 333 ug incubated in presence of S9 fraction by micro-Ames test; format: toxicity, subcellular, Salmonella enterica subsp. enterica serovar Typhimurium; settings: dose 0.152-333 µg
[5] = Mutagenicity in Salmonella typhimurium TA1537 assessed as inhibition of bacterial growth at 0.152 to 333 ug incubated in presence of S9 fraction by micro-Ames test; format: toxicity, subcellular, Salmonella enterica subsp. enterica serovar Typhimurium; settings: dose 0.152-333 µg
[6] = Mutagenicity in Salmonella typhimurium TA1537 assessed as inhibition of bacterial growth at 0.152 to 333 ug incubated in absence of S9 fraction by micro-Ames test; format: toxicity, Salmonella enterica subsp. enterica serovar Typhimurium; settings: in vivo; dose 0.152-333 µg
[7] = Mutagenicity in Salmonella typhimurium TA98 assessed as inhibition of bacterial growth at 0.152 to 333 ug incubated in presence of S9 fraction by micro-Ames test; format: toxicity, subcellular, Salmonella enterica subsp. enterica serovar Typhimurium; settings: dose 0.152-333 µg
[8] = Mutagenicity in Salmonella typhimurium TA1535 assessed as inhibition of bacterial growth at 0.152 to 333 ug incubated in absence of S9 fraction by micro-Ames test; format: toxicity, Salmonella enterica subsp. enterica serovar Typhimurium; settings: in vivo; dose 0.152-333 µg
[9] = Mutagenicity in Escherichia coli WP2uvrA assessed as inhibition of bacterial growth at 0.152 to 333 ug incubated in absence of S9 fraction by micro-Ames test; format: toxicity; settings: in vivo; dose 0.152-333 µg
SARS-CoV-2 [10] = test: Antiviral activity against SARS-CoV-2 infected in Vero E6 cells preincubated with cells for 1 day in presence of HCl treated compound followed by viral infection and measured after 3 days by qRT-PCR analysis; format: functional, organism-based; settings: Severe acute respiratory syndrome coronavirus 2, Vero C1008
MT2 = test: Cytotoxicity against human MT2 cells assessed as reduction in cell viability at 10 uM incubated for 12 days by CCK-8 assay; format: toxicity, cell-based; settings: mt2, 288 h, time 12 day
SARS-CoV-2 [11] = test: Antiviral activity against SARS-CoV-2 hCoV-19/Japan/TKYS02037/2022 (omicron BA.2) infected in Vero E6 cells preincubated with cells for 1 day followed by viral infection and measured after 3 days by qRT-PCR analysis; format: functional, organism-based; settings: Severe acute respiratory syndrome coronavirus 2, hCoV-19/Japan/TKYS02037/2022 (omicron BA.2), Vero C1008
[12] = Cytotoxicity against African green monkey Vero E6 cells incubated for 3 days by WST-8 assay; format: toxicity, cell-based, Vero C1008; settings: chlorocebus sabaeus, time 3 day
[13] = Mutagenicity in Salmonella typhimurium TA1535 assessed as inhibition of bacterial growth at 0.152 to 333 ug incubated in presence of S9 fraction by micro-Ames test; format: toxicity, subcellular, Salmonella enterica subsp. enterica serovar Typhimurium; settings: dose 0.152-333 µg
[14] = Mutagenicity in Salmonella typhimurium TA98 assessed as inhibition of bacterial growth at 0.152 to 333 ug incubated in absence of S9 fraction by micro-Ames test; format: toxicity, Salmonella enterica subsp. enterica serovar Typhimurium; settings: in vivo; dose 0.152-333 µg
[15] = Mutagenicity in Salmonella typhimurium TA100 assessed as inhibition of bacterial growth at 0.152 to 333 ug incubated in absence of S9 fraction by micro-Ames test; format: toxicity, Salmonella enterica subsp. enterica serovar Typhimurium; settings: in vivo; dose 0.152-333 µg
Vero C1008 = test: Cytotoxicity against African green monkey Vero E6 cells infected with SARS-CoV-2 WK-521 upto 100 uM incubated for 3 days by immunostaining analysis; format: toxicity, cell-based; settings: chlorocebus sabaeus, vero c1008, 72 h, time 3 day

## CC(C)(C)[C@H](NC(=O)C(F)(F)F)C(=O)N1C[C@H]2[C@@H]([C@H]1C(=O)N[C@H](C#N)C[C@@H]1CCNC1=O)C2(C)C
SARS-CoV-2 [1]
  EC50: 1.6 µM
[2]
  Activity: Non-Toxic
MOLT-4
  Activity: Non-Toxic
SARS-CoV-2 [3]
  EC50: 1.4 µM
PBMC
  Activity: Non-Toxic
[4]
  Activity: Non-Toxic
[5]
  Activity: Non-Toxic
[6]
  Activity: Non-Toxic
[7]
  Activity: Non-Toxic
[8]
  Activity: Non-Toxic
[9]
  Activity: Non-Toxic
SARS-CoV-2 [10]
  EC50: 2.5 µM
MT2
  Activity: Non-Toxic
SARS-CoV-2 [11]
  EC50: 1.4 µM
[12]
  CC50 at 72 h: > 100 µM
[13]
  Activity: Non-Toxic
[14]
  Activity: Non-Toxic
[15]
  Activity: Non-Toxic
Vero C1008
  Activity: Non-Toxic

From ChEMBL document CHEMBL5365531, “Structure-Activity Relationship Studies of SARS-CoV-2 Main Protease Inhibitors Containing 4-Fluorobenzothiazole-2-carbonyl Moieties” (J Med Chem, 2023)
